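Exposure lasted 48 hours, with cells grown in 96-well plates and compounds tested at five concentrations. GI50: concentration for 50% inhibition of growth.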 Active and inactive are the calls of the source. Rule as the data show it: active = GI50 up to about 1.1 µM and inactive = higher.
How the values were obtained:
Assay in all cases: DTP human tumour cell line panel, 48 h
[1] = system: HT-29
[2] = system: M14
[3] = system: NCI-H226
[4] = system: COLO 205
[5] = system: SR
[6] = system: UACC-62
[7] = system: HCT-116
[8] = system: ACHN
[9] = system: SW-620
[10] = system: K562
[11] = system: U-251
[12] = system: IGROV-1
[13] = system: A549
[14] = system: SNB-19
[15] = system: MOLT-4
[16] = system: SK-OV-3
[17] = system: SF-539
[18] = system: A498

Measured: GI50

CCOc1cc2cnc3c4cc(OC)c(OC)cc4ccc3c2cc1OC
inactive: [1] > 100 µM | [2] > 100 µM | [3] > 100 µM | [4] 4.92 µM | [5] 27.3 µM | [6] > 100 µM | [7] > 100 µM | [8] > 100 µM | [9] > 100 µM | [10] 20.7 µM | [11] 6.4 µM | [12] > 100 µM | [13] > 100 µM | [14] 19.4 µM | [15] 49.8 µM | [16] > 100 µM | [17] > 100 µM

O=C1C2C3SC(c4cc5ccccc5cc43)C2C(=O)N1c1ccccc1 (stereo not drawn)
inactive: [1] > 100 µM | [2] > 100 µM | [3] > 100 µM | [4] > 100 µM | [6] 95.1 µM | [7] > 100 µM | [8] 48.5 µM | [9] > 100 µM | [10] > 100 µM | [11] 68.2 µM | [12] > 100 µM | [13] > 100 µM | [14] 30.7 µM | [18] 41.8 µM | [15] > 100 µM | [16] > 100 µM | [17] 85.3 µM

Cc1cccc(C)c1NC(=O)CCc1n[nH]c(=S)o1
inactive: [1] > 100 µM | [2] > 100 µM | [3] > 100 µM | [4] 30.8 µM | [6] > 100 µM | [7] 20.4 µM | [8] > 100 µM | [9] 18.1 µM | [10] 36.2 µM | [11] > 100 µM | [12] > 100 µM | [13] 88.5 µM | [14] > 100 µM | [18] > 100 µM | [15] > 100 µM | [16] > 100 µM | [17] > 100 µM

COc1ccc(C(=O)C(C(=O)C(=O)Nc2ccc(Cl)c(Cl)c2)c2ccc(OC)cc2)cc1 (stereo not drawn)
inactive: [1] > 100 µM | [2] > 100 µM | [3] > 100 µM | [6] > 100 µM | [7] > 100 µM | [8] > 100 µM | [9] > 100 µM | [10] > 100 µM | [11] > 100 µM | [12] > 100 µM | [13] > 100 µM | [14] > 100 µM | [18] > 100 µM | [15] > 100 µM | [17] > 100 µM

CC(=O)OC1C(CCl)OC(N=[N+]=[N-])C(OC(C)=O)C1OC(C)=O (stereo not drawn)
inactive: [1] > 100 µM | [2] > 100 µM | [4] > 100 µM | [6] > 100 µM | [7] > 100 µM | [8] > 100 µM | [9] > 100 µM | [10] > 100 µM | [11] > 100 µM | [12] > 100 µM | [13] > 100 µM | [14] > 100 µM | [18] > 100 µM | [15] > 100 µM | [16] > 100 µM | [17] > 100 µM

O=C1CCN2C(=Nc3cccc4cccc2c34)N1
inactive: [1] > 100 µM | [2] > 100 µM | [3] > 100 µM | [4] > 100 µM | [5] > 100 µM | [6] > 100 µM | [7] > 100 µM | [8] > 100 µM | [9] > 100 µM | [10] > 100 µM | [11] > 100 µM | [12] > 100 µM | [13] > 100 µM | [14] > 100 µM | [15] > 100 µM | [16] > 100 µM | [17] > 100 µM

CP(C)C.[Ag][I]
inactive: [1] > 100 µM | [2] > 100 µM | [3] > 100 µM | [4] 47.9 µM | [5] > 100 µM | [6] > 100 µM | [7] 58.3 µM | [8] > 100 µM | [9] > 100 µM | [10] > 100 µM | [11] > 100 µM | [12] 40.4 µM | [13] > 100 µM | [14] > 100 µM | [15] > 100 µM | [16] > 100 µM | [17] > 100 µM

CCOC(=O)C1=C(O)C(=O)c2ccsc2C1=O
inactive: [1] > 100 µM | [2] > 100 µM | [3] > 100 µM | [4] > 100 µM | [5] > 100 µM | [6] > 100 µM | [7] > 100 µM | [8] > 100 µM | [9] > 100 µM | [10] > 100 µM | [11] > 100 µM | [12] > 100 µM | [13] > 100 µM | [14] > 100 µM | [18] > 100 µM | [15] > 100 µM | [16] > 100 µM | [17] > 100 µM

Cc1ccc(C2=Nc3ccccc3SC(c3cccc4c3OCO4)C2)cc1 (stereo not drawn)
inactive: [1] 16.9 µM | [2] 18 µM | [3] 18.1 µM | [4] 18.3 µM | [6] 20.3 µM | [8] 20.4 µM | [9] 19.1 µM | [10] 14.8 µM | [12] 16.7 µM | [13] 23.9 µM | [14] 16.1 µM | [18] 14.7 µM | [15] 17.9 µM | [16] 35.8 µM | [17] 20 µM

O=C1CCCCCCCCCCOC(=O)CCCCCCCCCCO1
inactive: [1] > 100 µM | [2] > 100 µM | [3] > 100 µM | [4] > 100 µM | [5] 44.7 µM | [6] > 100 µM | [7] > 100 µM | [8] > 100 µM | [9] > 100 µM | [10] > 100 µM | [11] > 100 µM | [12] > 100 µM | [13] > 100 µM | [14] > 100 µM | [18] > 100 µM | [16] > 100 µM | [17] > 100 µM

O=C(O)C1(c2ccccc2)CCCNCC1 (stereo not drawn)
inactive: [1] > 100 µM | [2] > 100 µM | [3] > 100 µM | [4] > 100 µM | [5] > 100 µM | [6] > 100 µM | [7] > 100 µM | [8] > 100 µM | [9] > 100 µM | [10] > 100 µM | [11] > 100 µM | [12] > 100 µM | [13] > 100 µM | [14] > 100 µM | [18] > 100 µM | [15] > 100 µM | [16] > 100 µM

COC(=O)/C(=N\NC(=S)NN)C(C(=O)C(=O)Nc1ccccc1C(N)=O)c1nc2ccccc2nc1O (stereo not drawn)
inactive: [2] > 100 µM | [3] > 100 µM | [4] > 100 µM | [5] > 100 µM | [6] > 100 µM | [7] > 100 µM | [8] > 100 µM | [9] > 100 µM | [10] > 100 µM | [11] > 100 µM | [12] > 100 µM | [13] > 100 µM | [14] > 100 µM | [15] > 100 µM | [17] > 100 µM

O=C(O)c1nccnc1C(=O)O
inactive: [1] > 100 µM | [3] > 100 µM | [4] > 100 µM | [5] > 100 µM | [6] > 100 µM | [7] > 100 µM | [9] > 100 µM | [10] > 100 µM | [11] > 100 µM | [12] > 100 µM | [13] > 100 µM | [14] > 100 µM | [15] > 100 µM | [16] > 100 µM | [17] > 100 µM

O=C(Cc1nc2ccccc2s1)C(=O)Nc1ccc(Cl)cc1Cl
inactive: [1] > 100 µM | [2] > 100 µM | [3] 77.6 µM | [4] > 100 µM | [5] > 100 µM | [7] > 100 µM | [8] > 100 µM | [9] > 100 µM | [10] > 100 µM | [11] > 100 µM | [12] > 100 µM | [13] > 100 µM | [14] > 100 µM | [15] > 100 µM | [16] > 100 µM | [17] > 100 µM

C=C[C@@]12CCCCC1C/C(=C(/O)OC)C(=O)C2 (stereo partly drawn)
inactive: [1] > 100 µM | [2] > 100 µM | [3] > 100 µM | [4] > 100 µM | [5] > 100 µM | [6] > 100 µM | [7] > 100 µM | [8] > 100 µM | [9] > 100 µM | [10] > 100 µM | [11] > 100 µM | [12] > 100 µM | [13] > 100 µM | [14] > 100 µM | [15] > 100 µM | [16] > 100 µM | [17] > 100 µM

COc1cccc(/C=C(/C(=O)O)c2cc(OC)c(OC)c(OC)c2)c1
inactive: [1] > 100 µM | [2] > 100 µM | [3] > 100 µM | [4] > 100 µM | [6] > 100 µM | [7] > 100 µM | [8] > 100 µM | [9] > 100 µM | [10] 51.8 µM | [11] > 100 µM | [12] > 100 µM | [13] > 100 µM | [14] > 100 µM | [18] > 100 µM | [15] > 100 µM | [17] > 100 µM

COc1ccc2[nH]cc(CCNC(C)=O)c2c1 [MELATONIN]
inactive: [1] 69 µM | [2] > 100 µM | [4] 29.9 µM | [6] > 100 µM | [7] > 100 µM | [8] > 100 µM | [9] 8.17 µM | [10] 39.1 µM | [11] > 100 µM | [12] > 100 µM | [13] > 100 µM | [14] > 100 µM | [18] > 100 µM | [15] > 100 µM | [16] > 100 µM | [17] > 100 µM

From ChEMBL document CHEMBL1201862, “PubChem BioAssay data set” (2004)
